Measured values taken from patent US11016062B2, “System and method of measuring cell viability and growth” (University of South Florida, priority 2015, dated 2021).
pIC50: −log10 of the molar value.

Assays:
BT474-MCTs = assay: Sensitivity of BT474 multi-cell tumoroids (MCTs, co-culture with ECs and CAFs) on PNS to lapatinib, PrestoBlue cell viability; type: cell-based; conditions: Homo sapiens, BT-474, BT474-MCTs in the presence of ECs and CAFs on PNS, lapatinib 72 h
Experimental: (§1) FIGS. 9A-C are a series of images depicting growth of BT474 derived SCTs (A) and MCTs (B) for 6 days on PNS; tumoroids are stained with calcein AM/EthD-1. Confocal (merged z-stacked) images showing presence of ECs (vWF, green cells), CAFs (SMA positive, red cells) and DAPI (cell nuclei) in BT474-MCTs imaged by confocal microscopy (merged z-stacked images). (C) Differential response of BT474-SCTs and -MCTs to lapatinib. On day 2 after co-culture, BT474 cells were treated with increasing concentrations (μM) of lapatinib for 72 h; cell viability was measured by PrestoBlue assay.
The inventors established conditions to co-culture tumor cells with ECs and CAFs to allow formation of robust MCTs. […] The presence of CAFs and ECs in the MCTs was confirmed by immunohistochemistry using anti-smooth muscle actin (SMA) and antivon Willebrand factor (vWF) antibodies for CAFs and ECs, respectively, followed by confocal microscopy (FIG. 9B). On day 5 after co-culture, CAFs were found dispersed throughout the MCT, whereas ECs were found mostly on the edge of the MCT.
The inventors examined sensitivity of BT474-SCTs and -MCTs to lapatinib. […]

BT474-SCTs = assay: Sensitivity of BT474 single cell-line tumoroids (SCTs) on PNS to lapatinib, PrestoBlue cell viability; type: cell-based; conditions: Homo sapiens, BT-474, BT474-SCTs cultured on PNS, lapatinib 72 h
Experimental: as §1
The inventors examined sensitivity of BT474-SCTs and -MCTs to lapatinib. […] These include, IL-6, IL-8, vascular endothelial growth factor (VEGF), monocyte chemotactic protein 1 (MCP-1), platelet derived growth factor BB (PDGF-BB), dickkopf-1 (DKK-1, inhibitor of Wnt signaling pathway), osteoprotegerin (OPG, a negative regulator of bone remodeling) and MMP-3, which have been implicated in tumor metastasis, angiogenesis, cancer stem cell amplification or drug resistance. In addition, five tumoroid biomarkers that are found expressed abundantly in MCTs (vs SCTs) and can be considered as predictors of clinical efficacy for lapatinib, included, a) marker for cell proliferation: Ki67, and b) stromal derived factors: IL-6, MCP-1, VEGF and DKK-1 (FIG. 9D).

## CS(=O)(=O)CCNCc1ccc(-c2ccc3ncnc(Nc4ccc(OCc5cccc(F)c5)c(Cl)c4)c3c2)o1 [lapatinib]
BT474-MCTs
  pIC50: < 5.00
BT474-SCTs
  pIC50: > 5.60
